Experiments:
ErbB2 = ErbB2 (Homo sapiens, UniProt P04626); conditions: cited from earlier work
[1] = test system: pErbB3 and pAKT in OVCAR8-HER2 cells; experiment: Inhibition of pErbB3 and pAKT by H3×B1D2 in OVCAR8-HER2 cells; type: cell-based; conditions: OVCAR8-HER2 (higher ErbB2 expression) compared to OVCAR8
Experimental: (§1) For stimulation of the cells, the cells are seeded in duplicate wells with 1000 μl complete media at 150,000 cells per well in 12 well tissue culture plates (for 96 half well ELISA) or in duplicate plate of 100 μl complete media at 20,000 cells per well in 96 well tissue culture plates (for 384 well ELISA). These cells are incubated overnight in a humidified atmosphere of 5% CO2, 95% air and 37 degrees Celsius. Cells are then switched to serum free media: RPMI-1640 media (Gibco) supplemented with, 2 mM L-glutamine (Gibco) and units/mL Pen-Strep (Gibco). Starved cells are incubated in a humidified atmosphere of 5% CO2, 95% air and 37 degrees Celsius for 20-24 hours prior to stimulation. For dose-time matrix studies, cells are stimulated with ligand (HRG) at 0, 1, 2, 3, 4, 5, 7, 10, 20, 30, 60 and 120 minutes. […]
(§2) Levels of protein phosphorylation in the stimulated cells are measured by ELISA. ErbB1, ErbB2, and ErbB3 are measured using R&D Systems Duoset IC kits (ErbB1 DYC1095-E, ErbB2 DYC1768-E, ErbB3 DYC1769-E). […] All ELISAs are visualized with SuperSignal ELISA Pico Chemiluminescent Substrate (Pierce, Catalog #37069) and luminescent signal is measured using a luminometer. […]

LS180 xenograft = experiment: Xenograft tumor model treated with H3×B1D2, LS180; type: in vivo, mouse; conditions: 600 μg/injection every 3 days, RGR of 1 = no effect
Experimental: (§3) To characterize the in vivo response of tumors to H3×B1D2 treatment, a panel of tumor cell lines was tested in a xenograft tumor model such as described in Example 1. In the xenograft tumor models, mice (nu/nu mice: 4-5 week old female mice, athymic, nude, outbred background; Albino; purchased from Charles River Labs, Wilmington, Mass.) are implanted in the flank with 5×10^6-2×10^7 cells/mouse (depending on cell line) in […] subcutaneous injection. Mice are monitored for initial tumor growth. Tumors are allowed to grow for several days until the mean tumor volume is approximately 150-200 mm^3. The tumor volume is calculated as V=(π/6 (L×W^2). The mice are treated with the H3×B1D2 antibody at a dosage of 600 μg/injection every 3 days (q3d). Control mice are treated with phosphate buffered saline (PBS) or with wild-type HSA (human serum albumin). Tumor volume is measured for 40-80 days.
(§4) The control and treatment data from the in vivo xenograft experiments was fitted to exponential growth curves, using the following formula: […]
(§5) wherein V is the tumor volume, Vo is the tumor volume at time zero, k is the exponential growth rate and t is the time. The potency of H3×B1D2 in inhibiting tumor growth was represented as the ratio of treatment and control exponential growth rates for each cell line tested. This ratio was denoted “relative growth rate” (RGR) and is represented as: […]

[2] = test system: pErbB3 and pAKT in ADRr cells; experiment: Inhibition of pErbB3 and pAKT by H3×B1D2 in ADRr cells; type: cell-based; conditions: ADRr cells (low ErbB2), computational model and experimental data
Experimental: as §1, §2

IGROV1 xenograft = experiment: Xenograft tumor model treated with H3×B1D2, IGROV1; type: in vivo, mouse; conditions: 600 μg/injection every 3 days, RGR of 1 = no effect
Experimental: as §3, §4, §5

[3] = test system: pErbB3 and pAKT signaling in different cell lines; experiment: Inhibition of HRG-induced pErbB3 and pAKT signaling by H3×B1D2, different cell lines; type: cell-based; conditions: across different cell lines; 5 nM HRG stimulation, ten-minute lysis
Experimental: as §1, §2

BT474-M3 xenograft = experiment: Xenograft tumor model treated with H3×B1D2, BT474-M3; type: in vivo, mouse; conditions: 600 μg/injection every 3 days, negative RGR = tumor regression
Experimental: as §3, §4, §5

| Molecule | Lapatinib on-rate for binding to ErbB2 or 2-3 dimers before unit conversion (ErbB2) | inhibition percentage of pErbB3 and pAKT [1] | relative growth rate (RGR = kH3×B1D2/kcontrol) (LS180 xenograft) | percentage of inhibition of pErbB3 and pAKT [2] | relative growth rate (RGR = kH3×B1D2/kcontrol) (IGROV1 xenograft) | IC50 of inhibition of pErbB3 and pAKT signaling [3] | relative growth rate (RGR = kH3×B1D2/kcontrol) (BT474-M3 xenograft) |
| --- | --- | --- | --- | --- | --- | --- | --- |
| CS(=O)(=O)CCNCc1ccc(-c2ccc3ncnc(Nc4ccc(OCc5cccc(F)c5)c(Cl)c4)c3c2)o1 [lapatinib] | Unit conversion calculated as 2.95e3 M^−1s^−1/ |  |  |  |  |  |  |
| H3×B1D2: bispecific antibody, anti-ErbB3 single chain antibody H3 linked to anti-ErbB2 single chain antibody B1D2, SEQ ID NO: 41 |  | greater inhibition percentage | greater than 1 | poor percentage of inhibition | greater than 1 | did not greatly change | negative |

— US20170307631A1, “METHODS, SYSTEMS AND PRODUCTS FOR PREDICTING RESPONSE OF TUMOR CELLS TO A THERAPEUTIC AGENT AND TREATING A PATIENT ACCORDING TO THE PREDICTED RESPONSE” (Merrimack Pharmaceuticals, Inc., priority 2008, published 2017)
